In patent US9526713B2, “Use of dencichine in preparation of drug for treating thrombocytopenia” (KUNMING SHENGHUO PHARMACEUTICAL (GROUP) CO., LTD., priority 2013, dated 2016):
Read-outs that look alike come from different tables or passages of the source.

Columns and labels:
ITP model mice = format: in vivo, BALB/C mice; details: 14 days
Description: (§1) Health BALB/C mice (body weight 18˜22 g) are randomly divided into six groups with 12 mice for each group:
Blank group, Model group, Prednisone Acetate Group, Dencichine (high dose, middle dose, and low dose) groups.
Modeling method: blood was taken from orbital vein of BALB/C Mice, followed by EDTA-Na2 Anticoagulation, and then platelets are separated and washed. The prepared platelet suspension solution was mixed uniformly with equal amount of complete Freund's adjuvant and incomplete Freund's adjuvant respectively. In the first week, antigen containing complete Freund's adjuvant is subcutaneously injected into hind paw, back and groin of the guinea pig. Injections are done for 4 times in total, with 5 spots for each injection and 100 μl for each spot. In the 6th week, non-anticoagulated whole blood was taken from the guinea pigs, and was centrifuged for 10 min under 3000 r/min to produce a supernate, which is the anti-mouse platelet serum (GP-APS) of the guinea pigs. The supernate was placed in a water bath (56° C.) for 30 min for complement inactivation, and then the inactivated supernate was diluted with normal saline, followed by test of antibody titers by agar diffusion method, and finally was stored in a refrigerator at −20° C. for later use.
(§2) Except the normal group, the mice of the remain five groups are injected with anti-mouse platelet serum (APS) of the guinea pig with a dose of 100 μl/20 g body weight, via intraperitoneal injection, on the 1st, 3rd, 5th, 7th, 9th, 11th and 13th day of the experiment.
(§3) The mice of each group are given intragastric administration from the first day. […] The mice of the prednisone acetate group are given intragastric administration of suspension of prednisone acetate at 5 mg/(kg·d). The mice of other groups are given intragastric administration of same volumetric of normal saline at 0.2 ml/20 g body weight. Intragastric administration for once each day, and continuous administration for 14 days.
Observation of the Subcutaneous Purpura:
Class I, minor bleeding are found at injection sites, and hemorrhagic spots are interspersed at other sites;
Class II, overt bleeding are found at injection sites, and ecchymosis and petechiae are found at other sites;

[1] = Body weight of rats suffering thrombopenia induced by carboplatin; format: in vivo, Wistar rats
Experimental: 81 rats are prepared and randomly divided into eight groups: • blank control group, • high-dose group A (4 mg/kg, intraperitoneal injection, non modeling), • model group (40 mg/kg, tail vein injection), • interleukin-11 group (260 μg/kg, subcutaneous injection), • high dose group B (4 mg/kg, intraperitoneal injection, modeling), • high dose group (4 mg/kg, intraperitoneal injection), • middle dose group (1 mg/kg, intraperitoneal injection), and • low dose group (0.25 mg/kg, intraperitoneal injection),
wherein, the Model group has 11 rats, and the other groups has 10 rats respectively. Before the experiment, the animals are asked to adapt the environment for 2 days, and then blood is taken from their tails for detecting hematological index.
After administration for 10 days, blood is taken from tails of rats from blank control group, high-dose group A, and positive drug group respectively for detecting hematological index.
Thereafter, all animals, except for those of blank group and high-dose group A, are individually injected with carboplatin (40 mg/kg) for modeling, and followed by successive administration for 15 days. During these 15 days, the rats of high-dose group A and high dose group B are stopped from administration, and taken blood from the tail on 5th day, 10th day and 15th day after the modeling respectively for detecting hematological indices. After 15th day of modeling, carboplatin (40 mg/kg) is injected again for a second modeling, and all the groups take successive administration according to the foregoing method, once a day for successive 10 days. Before each hematological indices detection, animals are weighed respectively. Taking the tails' blood of rats on 5th day after the second injection of carboplatin for detecting hematological indices, and taking the tails' blood of rats on 10th day after the second injection of carboplatin for detecting the indices of hematology, reticulocytes and coagulation; and weighing animals and killing them; and weighing liver, thymus, spleen and adrenal gland taken from the dead rats, and calculating out viscera indices; further taking out marrow for doing pathological examination.

[2] = format: in vivo, BALB/C mice
Experimental: as §1, §2, §3
The weights of mice of each group are respectively measured before modeling, on 7th test day, and on 14th test day.

[3] = system: rats with thrombocytopenia caused by carboplatin; experiment: Platelet count of rats with thrombocytopenia caused by carboplatin, different prophylactic administration time; format: in vivo, rat
[4] = high dose group (6 mg/kg per Table 8) intragastric
[5] = low dose group (1.5 mg/kg per Table 8) intragastric
[6] = middle dose group (3 mg/kg) intragastric

N[C@@H](CNC(=O)C(=O)O)C(=O)O [Dencichine, β-N-oxalyl-L-α, β-diaminopropionic acid]
Subcutaneous purpura, bleeding degree + (ITP model mice; [4]): 6 number of mice | Subcutaneous purpura, bleeding degree ++ (ITP model mice; [4]): 2 number of mice | Subcutaneous purpura, bleeding degree +++ (ITP model mice; [4]): 0 number of mice | Subcutaneous purpura, bleeding degree − (ITP model mice; [4]): 0 number of mice | Subcutaneous purpura, bleeding degree + (ITP model mice; [5]): 4 number of mice | Subcutaneous purpura, bleeding degree ++ (ITP model mice; [5]): 4 number of mice | Subcutaneous purpura, bleeding degree +++ (ITP model mice; [5]): 0 number of mice | Subcutaneous purpura, bleeding degree − (ITP model mice; [5]): 0 number of mice | Subcutaneous purpura, bleeding degree + (ITP model mice; [6]): 5 number of mice | Subcutaneous purpura, bleeding degree ++ (ITP model mice; [6]): 3 number of mice | Subcutaneous purpura, bleeding degree +++ (ITP model mice; [6]): 0 number of mice | Subcutaneous purpura, bleeding degree − (ITP model mice; [6]): 0 number of mice | body weight gain compared with control group ([1]; high dose group A, 4 mg/kg i.p., non modeling): slower body weight gain | body weight ([1]; high dose group A, 4 mg/kg i.p., non modeling, 5th day after first injection of carboplatin): 303.5 ± 17.17 g | body weight ([1]; high dose group A, 4 mg/kg i.p., non modeling, 5th day after second injection of carboplatin): 360.7 ± 24.05 g | body weight ([1]; high dose group A, 4 mg/kg i.p., non modeling, 10th day after first injection of carboplatin): 315.0 ± 17.29 g | body weight ([1]; high dose group A, 4 mg/kg i.p., non modeling, 10th day after second injection of carboplatin): 362.8 ± 28.63 g | body weight ([1]; high dose group A, 4 mg/kg i.p., non modeling, 15th day after first injection of carboplatin): 342.5 ± 19.93 g | body weight ([1]; high dose group A, 4 mg/kg i.p., non modeling, before experiment): 187.5 ± 7.37 g | body weight ([1]; high dose group A, 4 mg/kg i.p., non modeling, prophylactic administration for 10 days): 281.1 ± 13.19 g | body weight ([1]; high dose group B, 4 mg/kg i.p., prophylactic, modeling, 5th day after first injection of carboplatin): 289.9 ± 18.16 g | body weight ([1]; high dose group B, 4 mg/kg i.p., prophylactic, modeling, 5th day after second injection of carboplatin): 317.8 ± 25.87 g | body weight ([1]; high dose group B, 4 mg/kg i.p., prophylactic, modeling, 10th day after first injection of carboplatin): 308.2 ± 16.69 g | body weight ([1]; high dose group B, 4 mg/kg i.p., prophylactic, modeling, 10th day after second injection of carboplatin): 314.7 ± 28.71 g | body weight ([1]; high dose group B, 4 mg/kg i.p., prophylactic, modeling, 15th day after first injection of carboplatin): 318.7 ± 17.76 g | body weight ([1]; high dose group B, 4 mg/kg i.p., prophylactic, modeling, before experiment): 187.6 ± 9.46 g | body weight ([1]; high dose group B, 4 mg/kg i.p., prophylactic, modeling, prophylactic administration for 10 days): 284.7 ± 15.43 g | body weight ([1]; high dose group, 4 mg/kg i.p., 5th day after first injection of carboplatin): 298.8 ± 24.10 g | body weight ([1]; high dose group, 4 mg/kg i.p., 5th day after second injection of carboplatin): 324.6 ± 23.20 g | body weight ([1]; high dose group, 4 mg/kg i.p., 10th day after first injection of carboplatin): 314.0 ± 27.14 g | body weight ([1]; high dose group, 4 mg/kg i.p., 10th day after second injection of carboplatin): 316.6 ± 15.35 g | body weight ([1]; high dose group, 4 mg/kg i.p., 15th day after first injection of carboplatin): 341.8 ± 32.01 g | body weight ([1]; high dose group, 4 mg/kg i.p., before experiment): 188.8 ± 9.64 g | body weight ([1]; high dose group, 4 mg/kg i.p., prophylactic administration for 10 days): 285.8 ± 20.94 g | body weight ([1]; low dose group, 0.25 mg/kg i.p., 5th day after first injection of carboplatin): 302.6 g | body weight ([1]; low dose group, 0.25 mg/kg i.p., 5th day after second injection of carboplatin): 325.9 g | body weight ([1]; low dose group, 0.25 mg/kg i.p., 10th day after first injection of carboplatin): 317.2 g | body weight ([1]; low dose group, 0.25 mg/kg i.p., 10th day after second injection of carboplatin): 325.2 g | body weight ([1]; low dose group, 0.25 mg/kg i.p., 15th day after first injection of carboplatin): 343.2 g | body weight ([1]; low dose group, 0.25 mg/kg i.p., before experiment): 189.6 g | body weight ([1]; low dose group, 0.25 mg/kg i.p., prophylactic administration for 10 days): 288.7 g | body weight ([1]; middle dose group, 1 mg/kg i.p., 5th day after first injection of carboplatin): 291.5 ± 26.18 g | body weight ([1]; middle dose group, 1 mg/kg i.p., 5th day after second injection of carboplatin): 328.0 ± 33.38 g | body weight ([1]; middle dose group, 1 mg/kg i.p., 10th day after first injection of carboplatin): 315.0 ± 19.28 g | body weight ([1]; middle dose group, 1 mg/kg i.p., 10th day after second injection of carboplatin): 334.0 ± 28.15 g | body weight ([1]; middle dose group, 1 mg/kg i.p., 15th day after first injection of carboplatin): 329.8 ± 23.77 g | body weight ([1]; middle dose group, 1 mg/kg i.p., before experiment): 186.2 ± 11.31 g | body weight ([1]; middle dose group, 1 mg/kg i.p., prophylactic administration for 10 days): 282.8 ± 17.29 g | body weight ([2]; high dose group (6 mg/kg per Table 8) intragastric, Day 0): 19.5 ± 1.5 g | body weight ([2]; high dose group (6 mg/kg per Table 8) intragastric, Day 7): 19.8 ± 1.4 g | body weight ([2]; high dose group (6 mg/kg per Table 8) intragastric, Day 14): 20.3 ± 1.8 g | body weight ([2]; low dose group (1.5 mg/kg per Table 8) intragastric, Day 0): 20.2 ± 2.0 g | body weight ([2]; low dose group (1.5 mg/kg per Table 8) intragastric, Day 7): 20.4 ± 1.5 g | body weight ([2]; low dose group (1.5 mg/kg per Table 8) intragastric, Day 14): 21.1 ± 1.6 g | body weight ([2]; middle dose group (3 mg/kg) intragastric, Day 0): 19.9 ± 1.9 g | body weight ([2]; middle dose group (3 mg/kg) intragastric, Day 7): 20.1 ± 1.7 g | body weight ([2]; middle dose group (3 mg/kg) intragastric, Day 14): 20.8 ± 1.7 g | platelet count compared with that of model group ([3]; prophylactic administration for 3 days): no significant difference | platelet count ([3]; prophylactic administration for 3 days, after prophylactic administration): 656.3 ± 67.35 ×10^9/L | platelet count ([3]; prophylactic administration for 3 days, initial value): 717.5 ± 276.94 ×10^9/L | platelet count ([3]; prophylactic administration for 3 days, injection of carboplatin for 10 days): 110.2 ± 40.43 ×10^9/L | platelet count compared with that of model group ([3]; prophylactic administration for 5 days and 7 days): increase the platelet count | platelet count ([3]; prophylactic administration for 5 days, after prophylactic administration): 773.2 ± 142.02 ×10^9/L | platelet count ([3]; prophylactic administration for 5 days, initial value): 736.2 ± 182.37 ×10^9/L | platelet count ([3]; prophylactic administration for 5 days, injection of carboplatin for 10 days): 176.2 ± 28.34 ×10^9/L | platelet count ([3]; prophylactic administration for 7 days, after prophylactic administration): 772.8 ± 70.63 ×10^9/L | platelet count ([3]; prophylactic administration for 7 days, initial value): 743.7 ± 226.92 ×10^9/L | platelet count ([3]; prophylactic administration for 7 days, injection of carboplatin for 10 days): 166.2 ± 18.20 ×10^9/L
